Biological target: T1, G protein-activated inward rectifier potassium channel 1/4 (Homo sapiens, UniProt P48544+P48549)
T1 sequence (P48549 whole entry): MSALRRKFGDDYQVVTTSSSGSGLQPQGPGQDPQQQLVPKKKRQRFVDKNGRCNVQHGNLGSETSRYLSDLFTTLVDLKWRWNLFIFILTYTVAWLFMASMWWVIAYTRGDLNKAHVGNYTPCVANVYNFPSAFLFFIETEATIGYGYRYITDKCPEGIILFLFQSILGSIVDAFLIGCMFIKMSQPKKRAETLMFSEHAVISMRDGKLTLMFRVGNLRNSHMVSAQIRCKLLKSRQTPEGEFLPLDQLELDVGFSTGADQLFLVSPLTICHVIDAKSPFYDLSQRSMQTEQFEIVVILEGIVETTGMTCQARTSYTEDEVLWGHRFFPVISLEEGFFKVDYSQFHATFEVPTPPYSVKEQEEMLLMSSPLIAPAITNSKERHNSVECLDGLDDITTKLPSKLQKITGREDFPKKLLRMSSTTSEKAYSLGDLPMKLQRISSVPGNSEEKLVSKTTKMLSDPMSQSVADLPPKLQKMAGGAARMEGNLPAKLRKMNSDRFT
T1 sequence (P48544 whole entry): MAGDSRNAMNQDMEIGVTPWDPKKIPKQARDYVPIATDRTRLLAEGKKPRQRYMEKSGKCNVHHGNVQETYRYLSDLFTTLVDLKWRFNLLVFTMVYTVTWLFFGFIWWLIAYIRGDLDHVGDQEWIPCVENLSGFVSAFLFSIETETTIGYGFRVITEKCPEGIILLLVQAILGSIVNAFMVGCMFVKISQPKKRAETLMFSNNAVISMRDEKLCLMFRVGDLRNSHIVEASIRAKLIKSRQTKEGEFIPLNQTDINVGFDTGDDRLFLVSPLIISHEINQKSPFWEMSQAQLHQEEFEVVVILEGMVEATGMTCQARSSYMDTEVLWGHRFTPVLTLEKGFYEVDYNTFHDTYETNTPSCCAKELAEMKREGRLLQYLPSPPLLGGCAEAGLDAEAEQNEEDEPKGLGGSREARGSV
Assay: GIRK1/4 Activity Assay
Protocol: The GIRK1/4 activity of a compound according to the present invention was assessed by the following in vitro method.Buffers:a. External buffer: 10 mM NaCl, 50 mM Na Gluconate, 80 mM K Gluconate, 1.8 mM CaCl2, 1 mM MgCl2, 10 mM HEPES, 10 mM Glucose, pH 7.4; osmolarity 300-310 […].b. Internal buffer: 30 mM KCl, 100 mM K Gluconate, 1 mM MgCl2, 10 mM HEPES, 1 mM EGTA, 10 mM NaCl, pH 7.2; osmolarity […].Compounds:c. Prepare seven-fold compound dilution series (10 mM to 20 uM) in 100% DMSO, in 384-well polypropylene plates.d. Propafenone (Sigma Aldrich, catalog number P4670) was used as a positive control and DMSO for neutral controle. Resuspend 1 μl of compounds in DMSO into 66.7 μl external buffer in 384-well polypropylene plate and load into Plate 1 section of Molecular Devices Quattro Quattro Setup:f. Load 384-well Population Patch Plate (Molecular Devices #9000-0902) into Quattrog. Fill Quattro F-soak trough with 20% DMSO and 50% EtOHh. Fill Quattro buffer trough with external bufferi. Attach internal buffer flask to Quattro internal buffer tubingj. Attach PBS (Phosphate Buffered Saline, minus Ca++ and Mg++, pH7.4) bottle to F-head & E-head wash on QuattroAntibiotic:k. […] Measured magnitude of inward potassium current at time point between 1200-1220 ms from start of Pulse 1 (i.e., during the voltage ramp phase).t. […]

- IC50: 30 nM
SMILES: Cc1cc(=O)c2c(OCCC(N)=O)ncc(Cl)c2n1-c1c(Cl)cc(OCCO)cc1Cl [US12084442, Example 18]

Reference: BindingDB's records for patent US12084442 (Novartis, 2024)
